From BindingDB's records for doi:10.1016/j.chembiol.2008.10.017 (University of Toronto, 2008)

Molecular target: T1, Putative farnesyl pyrophosphate synthase (Cryptosporidium parvum (strain Iowa II), UniProt Q5CR09)
T1 sequence (Q5CR09 whole entry): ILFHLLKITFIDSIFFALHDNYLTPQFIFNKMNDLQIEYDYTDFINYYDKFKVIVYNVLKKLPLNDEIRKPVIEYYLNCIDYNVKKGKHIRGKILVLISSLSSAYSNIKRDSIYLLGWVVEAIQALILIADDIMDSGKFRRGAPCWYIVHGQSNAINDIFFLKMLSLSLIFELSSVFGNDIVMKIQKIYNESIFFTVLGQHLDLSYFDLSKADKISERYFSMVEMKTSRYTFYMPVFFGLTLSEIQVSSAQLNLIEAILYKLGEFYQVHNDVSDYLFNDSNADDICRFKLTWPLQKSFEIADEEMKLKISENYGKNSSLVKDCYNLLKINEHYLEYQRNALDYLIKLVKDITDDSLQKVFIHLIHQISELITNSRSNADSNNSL
Experiment: Enzymatic Assay
Conditions: pH 7.7; 37 °C
Experimental: Enzymatic assay using CpNPPPS was assayed using Reed and Rilling method with some modification.

Row | Compound | IC50 [nM] | Ki [nM]
1 | O=P(O)(O)C(O)(Cn1ccnc1)P(=O)(O)O | 30.1 | 0.05
2 | O=P(O)(O)C(O)(Cc1cccnc1)P(=O)(O)O [JMC515594 Compound 64] | 45.7 | 0.38
